From the NIST ThermoML archive (doi:10.1016/j.jct.2015.12.031)

How the values were obtained:
[1] = refractive index (Na D-line) (dimensionless); mn = molality of the nth substance listed, in mol/kg; settings: 86.5 kPa, Liquid, Standard Abbe refractometry
[2] = mn = molality of the nth substance listed, in mol/kg; settings: 86.5 kPa, Liquid; for speed of sound: Frequency=3 MHz, Sing-around technique in a fixed-path interferometer; for mass density: Vibrating tube method

CCCCCCCCn1cc[n+](C)c1.[Br-] [1-methyl-3-octylimidazolium bromide] + c1ccsc1
Settings	mass density, [2] [kg/m3]	refractive index, [1]	speed of sound, [2] [m/s]
288.15 K, m2 = 0	1179.37	1.525	1605.2
288.15 K, m2 = 0.0087	1179.17	1.5248	1603.7
288.15 K, m2 = 0.022	1178.88	1.5245	1601.5
288.15 K, m2 = 0.032	1178.66	1.5242	1599.9
288.15 K, m2 = 0.0435	1178.43	1.524	1598.3
288.15 K, m2 = 0.0556	1178.18	1.5238	1596.8
288.15 K, m2 = 0.0663	1177.97	1.5235	1595.7
288.15 K, m2 = 0.0821	1177.68	1.5232	1594.3
288.15 K, m2 = 0.0923	1177.49	1.5229	1593.4
288.15 K, m2 = 0.107	1177.22	1.5226	1592.3
288.15 K, m2 = 0.1464	1176.57	1.5221	1590.2
288.15 K, m2 = 0.1765	1176.08	1.5216	1588.8
293.15 K, m2 = 0	1176.17	1.5236	1581.9
293.15 K, m2 = 0.0087	1175.97	1.5233	1581
293.15 K, m2 = 0.022	1175.68	1.5231	1579.5
293.15 K, m2 = 0.032	1175.46	1.5228	1578.6
293.15 K, m2 = 0.0435	1175.23	1.5226	1577.6
293.15 K, m2 = 0.0556	1174.97	1.5223	1576.5
293.15 K, m2 = 0.0663	1174.75	1.522	1575.7
293.15 K, m2 = 0.0821	1174.47	1.5217	1574.6
293.15 K, m2 = 0.0923	1174.27	1.5214	1573.8
293.15 K, m2 = 0.107	1174.01	1.5211	1572.9
293.15 K, m2 = 0.1464	1173.34	1.5205	1571.1
293.15 K, m2 = 0.1765	1172.85	1.52	1570.2
298.15 K, m2 = 0	1172.98	1.5221	1561.9
298.15 K, m2 = 0.0087	1172.78	1.5219	1561.3
298.15 K, m2 = 0.022	1172.48	1.5216	1560.3
298.15 K, m2 = 0.032	1172.27	1.5213	1559.7
298.15 K, m2 = 0.0435	1172.02	1.521	1558.9
298.15 K, m2 = 0.0556	1171.78	1.5207	1558.2
298.15 K, m2 = 0.0663	1171.57	1.5203	1557.5
298.15 K, m2 = 0.0821	1171.26	1.52	1556.5
298.15 K, m2 = 0.0923	1171.07	1.5197	1555.9
298.15 K, m2 = 0.107	1170.8	1.5193	1555.1
298.15 K, m2 = 0.1464	1170.16	1.5187	1553.5
298.15 K, m2 = 0.1765	1169.7	1.5181	1552.3
303.15 K, m2 = 0	1169.86	1.5206	1542.8
303.15 K, m2 = 0.0087	1169.65	1.5205	1542.3
303.15 K, m2 = 0.022	1169.35	1.5202	1541.6
303.15 K, m2 = 0.032	1169.13	1.5199	1541.1
303.15 K, m2 = 0.0435	1168.88	1.5196	1540.7
303.15 K, m2 = 0.0556	1168.64	1.5192	1540.1
303.15 K, m2 = 0.0663	1168.42	1.5189	1539.6
303.15 K, m2 = 0.0821	1168.12	1.5185	1539.1
303.15 K, m2 = 0.0923	1167.93	1.5182	1538.5
303.15 K, m2 = 0.107	1167.67	1.5179	1538
303.15 K, m2 = 0.1464	1167.05	1.5171	1536.6
303.15 K, m2 = 0.1765	1166.59	1.5166	1535.7

CCCCCCn1cc[n+](C)c1.[Br-] [3-hexyl-1-methyl-1H-imidazolium bromide] + c1ccsc1
Settings	mass density, [2] [kg/m3]	refractive index, [1]	speed of sound, [2] [m/s]
288.15 K, m2 = 0	1231.02	1.5282	1639.4
288.15 K, m2 = 0.0186	1230.37	1.5277	1638.2
288.15 K, m2 = 0.0221	1230.25	1.5276	1638
288.15 K, m2 = 0.0358	1229.81	1.5273	1637.2
288.15 K, m2 = 0.0433	1229.58	1.5271	1636.8
288.15 K, m2 = 0.0632	1228.97	1.5266	1635.7
288.15 K, m2 = 0.0727	1228.69	1.5264	1635.2
288.15 K, m2 = 0.0952	1228.1	1.5259	1634
288.15 K, m2 = 0.1142	1227.69	1.5255	1633
288.15 K, m2 = 0.137	1227.21	1.5251	1631.7
288.15 K, m2 = 0.1603	1226.74	1.5247	1630.7
288.15 K, m2 = 0.1869	1226.31	1.5242	1629.8
293.15 K, m2 = 0	1227.43	1.5268	1610.4
293.15 K, m2 = 0.0186	1226.77	1.5261	1609.5
293.15 K, m2 = 0.0221	1226.65	1.526	1609.3
293.15 K, m2 = 0.0358	1226.19	1.5257	1608.7
293.15 K, m2 = 0.0433	1225.96	1.5255	1608.4
293.15 K, m2 = 0.0632	1225.37	1.5251	1607.5
293.15 K, m2 = 0.0727	1225.11	1.5249	1607.1
293.15 K, m2 = 0.0952	1224.52	1.5244	1606.1
293.15 K, m2 = 0.1142	1224.09	1.524	1605.5
293.15 K, m2 = 0.137	1223.63	1.5234	1604.5
293.15 K, m2 = 0.1603	1223.19	1.5228	1603.7
293.15 K, m2 = 0.1869	1222.77	1.5223	1602.9
298.15 K, m2 = 0	1223.74	1.5254	1587.1
298.15 K, m2 = 0.0186	1223.07	1.5247	1586.3
298.15 K, m2 = 0.0221	1222.95	1.5246	1586.2
298.15 K, m2 = 0.0358	1222.49	1.5242	1585.7
298.15 K, m2 = 0.0433	1222.25	1.5239	1585.4
298.15 K, m2 = 0.0632	1221.65	1.5233	1584.6
298.15 K, m2 = 0.0727	1221.38	1.523	1584.3
298.15 K, m2 = 0.0952	1220.8	1.5224	1583.6
298.15 K, m2 = 0.1142	1220.33	1.5219	1582.9
298.15 K, m2 = 0.137	1219.88	1.5213	1582.2
298.15 K, m2 = 0.1603	1219.44	1.5208	1581.7
298.15 K, m2 = 0.1869	1219	1.5201	1581
303.15 K, m2 = 0	1220.35	1.5237	1568.7
303.15 K, m2 = 0.0186	1219.67	1.5227	1568.1
303.15 K, m2 = 0.0221	1219.55	1.5226	1568
303.15 K, m2 = 0.0358	1219.09	1.5223	1567.6
303.15 K, m2 = 0.0433	1218.84	1.5221	1567.4
303.15 K, m2 = 0.0632	1218.25	1.5217	1566.8
303.15 K, m2 = 0.0727	1217.98	1.5215	1566.6
303.15 K, m2 = 0.0952	1217.4	1.5211	1566
303.15 K, m2 = 0.1142	1216.96	1.5207	1565.5
303.15 K, m2 = 0.137	1216.51	1.5202	1564.9
303.15 K, m2 = 0.1603	1216.07	1.5197	1564.5
303.15 K, m2 = 0.1869	1215.66	1.5191	1564
